From patent US20240300980A1, “HETEROCYCLIC COMPOUNDS AS KRAS INHIBITOR, AND PREPARATION THEREFOR AND USE THEREOF IN TREATMENT” (SHANGHAI KECHOW PHARMA, INC., priority 2021, published 2024)

Test system: AGS cells (KRAS^G12D)
Test: Detection of cell proliferation in vitro by MTT/MTS method (cell activity experiment)
Type: cell-based
Conditions: Homo sapiens, AGS, 72 h, AGS cells; MTT/MTS; 3 days of drug treatment; read-out: AGS IC50
Procedure: The above cells were cultured in a complete medium containing 10% fetal bovine serum, 100 IU/mL penicillin and 100 jag/mL streptomycin, in the aseptic incubator with 95% relative humidity and 5% CO2 concentration.
2. Reagents: F12K, D-PBS, FBS, Penicillin Streptomycin, Tryple, MTT (5 mg/mL)
Appropriate amount of compound powder was weighed in a 1.5 mL centrifuge tube, then the corresponding volume of dimethyl sulfoxide (DMSO) was added to form a 20 mM reserve solution. The solution was packed separately and stored in a refrigerator at −20° C. away from light.
The cells were inoculated in a cell culture bottle, added an appropriate amount of complete medium, and cultured in a sterile incubator. When the degree of cell confluence reached more than 80%, subculture was carried out.
The adherent cells in logarithmic growth phase were digested by trypsin or the suspension cells were collected by centrifugation and counted. 90 μL cell suspension was inoculated into 96-well plate according to the cell inoculation density of 1000 cells per well, and 10 μL of 10-fold final concentration compound diluted by culture medium was added 24 hours later. Compared with the hole with the same volume of 5% DMSO as control, the final concentration of DMSO was 0.5%. After 3 days of drug treatment, the cell viability was detected by MTT. The specific methods are as follows: 10 μL MTT per well was added into the incubator for 4 hours, the supernatant was discarded and 150 μL DMSO was added to dissolve the crystal methylazan, and the absorbance of 490 nm was detected by enzyme labeling instrument, or 10 μL MITS per well was added to the incubator for 4 hours, and […] absorbance was detected directly by enzyme labeling instrument. GraphPad Prism 6 software makes dose-effect curve and calculates IC50.

IC50 [nM] | Compound
316 | C#Cc1c(F)ccc2cc(O)cc(-c3ncc4c(N5C[C@H]6CC[C@@H](C5)O6)nc(OC[C@@]56CCCN5C[C@H](F)C6)nc4c3F)c12 [Example 12, 4-(4-((1R,5S)-8-oxa-3-azabicyclo[3.2.1]octan-3-yl)-8-fluoro-2-(((2R,7aS)-2-fluorotetrahydro-1H-pyrrolizin-7a(5H)-yl)methoxy)pyrido[4,3-d]pyrimidin-7-yl)-5-ethynyl-6-fluoronaphthalen-2-ol]
> 2500 | C#Cc1c(F)ccc2cc(O)cc(-c3ncc4c(N5CC6CCCNC6C5)nc(OC[C@@]56CCCN5C[C@H](F)C6)nc4c3F)c12 (stereo partly drawn) [Example 52, 5-ethynyl-6-fluoro-4-(8-fluoro-2-(((2R,7aS)-2-fluorotetrahydro-1H-pyrrolizin-7a(5H)-yl)methoxy)-4-(octahydro-6H-pyrrolo[3,4-b]pyridin-6-yl)pyrido[4,3-d]pyrimidin-7-yl)naphthalen-2-ol]
> 10000 | C#Cc1c(F)ccc2cc(O)cc(-c3ncc4c(C5CCN(C(=O)CO)C5)nc(OC[C@@]56CCCN5C[C@H](F)C6)nc4c3F)c12 (stereo partly drawn) [Example 84, 1-(3-(7-(8-ethynyl-7-fluoro-3-hydroxynaphthalen-1-yl)-8-fluoro-2-(((2R,7aS)-2-fluorotetrahydro-1H-pyrrolizin-7a(5H)-yl)methoxy)pyrido[4,3-d]pyrimidin-4-yl)pyrrolidin-1-yl)-2-hydroxyethan-1-one]
> 2500 | C#Cc1c(F)ccc2cc(O)cc(-c3ncc4c(N5CC6CCC(C5)C6O)nc(OC[C@@]56CCCN5C[C@H](F)C6)nc4c3F)c12 (stereo partly drawn) [Example 60, (1R,5S,8R)-3-(7-(8-ethynyl-7-fluoro-3-hydroxynaphthalen-1-yl)-8-fluoro-2-(((2R,7aS)-2-fluorotetrahydro-1H-pyrrolizin-7a(5H)-yl)methoxy)pyrido[4,3-d]pyrimidin-4-yl)-3-azabicyclo[3.2.1]octan-8-ol]
35 | C#Cc1c(F)ccc2cc(O)cc(-c3ccc4c(NCC5(N(C)C)CCC5)nc(OC[C@@]56CCCN5C[C@H](F)C6)nc4c3F)c12 [Example 430, 4-(4-(((1-(dimethylamino)cyclobutyl)methyl)amino)-8-fluoro-2-(((2R,7aS)-2-fluorotetrahydro-1H-pyrrolizin-7a(5H)-yl)methoxy)quinazolin-7-yl)-5-ethynyl-6-fluoronaphthalen-2-ol]
> 2500 | O=S1(=O)[C@@H]2CC[C@H]1CN(c1nc(OC[C@@]34CCCN3C[C@H](F)C4)nc3c(F)c(-c4cc(O)cc5cccc(F)c45)ccc13)C2 [Example 169, (1R,5S)-3-(8-fluoro-7-(8-fluoro-3-hydroxynaphthalen-1-yl)-2-(((2R,7aS)-2-fluorotetrahydro-1H-pyrrolizin-7a(5H)-yl)methoxy)quinazolin-4-yl)-8-thia-3-azabicyclo[3.2.1]octane 8,8-dioxide]
> 10000 | C#Cc1c(F)ccc2cc(O)cc(-c3ncc4c(N5CC6CCC(C5)C6SC)nc(OC[C@@]56CCCN5C[C@H](F)C6)nc4c3F)c12 (stereo partly drawn) [Example 64, 5-ethynyl-6-fluoro-4-(8-fluoro-2-(((2R,7aS)-2-fluorotetrahydro-1H-pyrrolizin-7a(5H)-yl)methoxy)-4-((1R,5S, 8R)-8-(methylthio)-3-azabicyclo[3.2.1]octan-3-yl)pyrido[4,3-d]pyrimidin-7-yl) naphthalen-2-ol]
419 | C#Cc1c(F)ccc2cc(O)cc(-c3ccc4c(N5CC(C(C)(C)N)C5)nc(OC[C@@]56CCCN5C[C@H](F)C6)nc4c3F)c12 [Example 212, 4-(4-(3-(2-aminopropan-2-yl)azetidin-1-yl)-8-fluoro-2-(((2R,7aS)-2-fluorotetrahydro-1H-pyrrolizin-7a(5H)-yl)methoxy)quinazolin-7-yl)-5-ethynyl-6-fluoronaphthalen-2-ol]
> 2500 | C#Cc1cccc2cc(O)cc(-c3ncc4c(N5CC6CCC(C5)C6F)nc(OC[C@@]56CCCN5C[C@H](F)C6)nc4c3F)c12 (stereo partly drawn) [Example 36, 5-ethynyl-4-(8-fluoro-4-((1R,5S,8R)-8-fluoro-3-azabicyclo[3.2.1]octan-3-yl)-2-(((2R,7aS)-2-fluorotetrahydro-1H-pyrrolizin-7a(5H)-yl)methoxy)pyrido[4,3-d]pyrimidin-7-yl) naphthalen-2-ol]

Compound | IC50 [nM]
CC1CCc2cc(O)cc(-c3ncc4c(N5C[C@H]6CC[C@@H](C5)N6)nc(OC[C@@]56CCCN5C[C@H](F)C6)nc4c3F)c21 (stereo partly drawn) [Example 223, 7-(4-((1R,5S)-3,8-diazabicyclo[3.2.1]octan-3-yl)-8-fluoro-2-(((2R,7aS)-2-fluorotetrahydro-1H-pyrrolizin-7a(5H)-yl)methoxy)pyrido[4,3-d]pyrimidin-7-yl)-1-methyl-2,3-dihydro-1H-inden-5-ol] | 14
C#CC1CCc2cc(O)cc(-c3ncc4c(N5C[C@H]6CC[C@@H](C5)N6)nc(OC[C@@]56CCCN5C[C@H](F)C6)nc4c3F)c21 (stereo partly drawn) [Example 247, 7-(4-((1R,5S)-3,8-diazabicyclo[3.2.1]octan-3-yl)-8-fluoro-2-(((2R,7aS)-2-fluorotetrahydro-1H-pyrrolizin-7a(5H)-yl)methoxy)pyrido[4,3-d]pyrimidin-7-yl)-1-ethynyl-2,3-dihydro-1H-inden-5-ol] | 6.1
C#Cc1c(F)ccc2cc(O)cc(-c3ncc4c(N5C[C@H]6CC[C@@H](C5)N6)nc(OCC56CCCC5N(C)CC6)nc4c3F)c12 (stereo partly drawn) [Example 74, 4-(4-((1R,5S)-3,8-diazabicyclo [3.2.1]octan-3-yl)-8-fluoro-2-((1-methylhexahydrocyclo-penta[b]pyrrol-3a(1H)-yl)methoxy)pyrido[4,3-d]pyrimidin-7-yl)-5-ethynyl-6-fluoronaphthalen-2-ol] | > 2500
C#Cc1c(F)ccc2cc(O)cc(-c3ccc4c(N5C[C@H]6CC[C@@H](C5)N6)c(C#N)c(OC[C@@]56CCCN5C[C@H](F)C6)nc4c3F)c12 [Example 177, 4-((1R,5S)-3,8-diazabicyclo[3.2.1]octan-3-yl)-7-(8-ethynyl-7-fluoro-3-hydroxynaphthalen-1-yl)-8-fluoro-2-(((2R,7aS)-2-fluorotetrahydro-1H-pyrrolizin-7a(5H)-yl)methoxy)quinoline-3-carbonitrile] | 530
CCc1cccc2cc(O)cc(-c3ccc4c(N5C[C@H]6CC[C@@H](C5)N6)c(C#N)c(OC[C@@]56CCCN5C[C@H](F)C6)nc4c3F)c12 [Example 181, 4-((1R,5S)-3,8-diazabicyclo[3.2.1]octan-3-yl)-7-(8-ethyl-3-hydroxynaphthalen-1-yl)-8-fluoro-2-(((2R,7aS)-2-fluorotetrahydro-1H-pyrrolizin-7a(5H)-yl)methoxy)quinoline-3-carbonitrile] | 536
C#Cc1cccc2cc(O)cc(-c3ncc4c(N5CC6CCCC(C5)N6)nc(OC[C@@]56CCCN5C[C@H](F)C6)nc4c3F)c12 [Example 44, 4-(4-(3,9-diazabicyclo [3.3.1]nonan-3-yl)-8-fluoro-2-(((2R,7aS)-2-fluorotetrahydro-1H-pyrrolizin-7a(5H)-yl)methoxy)pyrido[4,3-d]pyrimidin-7-yl)-5-ethynylnaphthalen-2-ol] | 47
C#Cc1c(F)ccc2cc(O)cc(-c3ccc4c(N5C[C@H]6CC[C@@H](C5)N6)c(C#N)c(OC[C@@]56CCCN5C[C@H](F)C6)nc4c3)c12 [Example 171, 4-((1R,5S)-3,8-diazabicyclo[3.2.1]octan-3-yl)-7-(8-ethynyl-7-fluoro-3-hydroxynaphthalen-1-yl)-2-(((2R,7aS)-2-fluorotetrahydro-1H-pyrrolizin-7a(5H)-yl)methoxy)quinoline-3-carbonitrile] | 1240
